Source: US6399585B1, “In Utero treatment of CFTR-related deficiencies” (priority 1996, dated 2002)

Legend:
[1] = system: intracellular calcium stores; assay: Intracellular calcium stores in intestines (Calcium Green, confocal microscopy); type: in vivo, mouse; settings: cftr−/− mice, in utero ATP-treatment, examined at 65 days old
Description: (§1) All tissues were sectioned and washed in phosphate buffered saline. Stock solutions (1 mM) of stains obtained from Molecular Probes were used. Two microliters/ml of either CaGreen-AM. (Molecular Probes) or Rhodamine green-UTP (Molecular Probes) was added to the tissue, then incubated for 1-2 hrs All samples were examined on a Noran Odyssey CLSM with a Nikon Diaphot inverted microscope. The software used for the imaging was Noran's Intervision running on a SGI Indy workstation.
Calcium plays an integral role in secretion. […] Calcium Green™, a flourescent stain for intracellular calcium, was applied to cross-sections of both control and in utero cftr-treated cftr−/− and cftr+/− mice. All samples were examined by confocal microscopy.
Intracellular calcium stores were evaluated after in utero ATP rescue, as previously described.

[2] = system: UTP receptors; assay: UTP receptors in intestines (Rhodamine green-UTP staining); type: in vivo, mouse; settings: knockout mice, ATP rescue, 65 day old mice
Description: as §1
Multiple purinergic receptors and multiple signal transduction pathways are activated in different membrane domains of tracheal epithelia (Hwang, Schwiebert et al. 1996) (Devidas and Guggino 1997). Functional characterization of the P2 purinoceptor superfamily support a diverse functional role for ATP and related nucleotides in the regulation of tissue function (Williams 1996). To examine the possible role of these purinergic receptors, changes in UTP receptors in treated and normal intestines were examined using UTP labeled with fluorescent rhodamine green to stain sections of intestines.
Changes in UTP receptors in ATP-treated intestines were examined using UTP labeled with fluorescent rhodamine green to stain sections of intestines.

[3] = system: cftr deficient mice; assay: Survival of mice after in utero ATP or cftr treatment; type: in vivo, mouse
Description: Female heterozygous UNC knockout X C57bl/6 mouse 5th generation backcross mice were mated with either heterozygous and previously rescued homozygous knockout mice. At 15-16 days gestation animals were anesthetized as in Example (II)(C)(2) and the fetuses surgically exposed for injection. Virus (10^9 particles/ml of amniotic fluid) was injected into the amniotic fluid. Normal delivery of the animals was allowed to take place.
Female heterozygous UNC knockout X C57bl/6 mouse 5th generation backcross mice were mated with either heterozygous and previously rescued homozygous knockout mice. At 15-16 days gestation animals were anesthetized as in Example (II)(C)(2) and the fetuses surgically exposed for injection. 20 ul of a 20 mM ATP in sterile physiological saline was injected into the amniotic fluid. Normal delivery of the animals was allowed to take place.

[4] = target: T1, ENaC (Homo sapiens, UniProt P37088+P51168+P51170); settings: cited from earlier work
T1 sequence (P37088 1-669): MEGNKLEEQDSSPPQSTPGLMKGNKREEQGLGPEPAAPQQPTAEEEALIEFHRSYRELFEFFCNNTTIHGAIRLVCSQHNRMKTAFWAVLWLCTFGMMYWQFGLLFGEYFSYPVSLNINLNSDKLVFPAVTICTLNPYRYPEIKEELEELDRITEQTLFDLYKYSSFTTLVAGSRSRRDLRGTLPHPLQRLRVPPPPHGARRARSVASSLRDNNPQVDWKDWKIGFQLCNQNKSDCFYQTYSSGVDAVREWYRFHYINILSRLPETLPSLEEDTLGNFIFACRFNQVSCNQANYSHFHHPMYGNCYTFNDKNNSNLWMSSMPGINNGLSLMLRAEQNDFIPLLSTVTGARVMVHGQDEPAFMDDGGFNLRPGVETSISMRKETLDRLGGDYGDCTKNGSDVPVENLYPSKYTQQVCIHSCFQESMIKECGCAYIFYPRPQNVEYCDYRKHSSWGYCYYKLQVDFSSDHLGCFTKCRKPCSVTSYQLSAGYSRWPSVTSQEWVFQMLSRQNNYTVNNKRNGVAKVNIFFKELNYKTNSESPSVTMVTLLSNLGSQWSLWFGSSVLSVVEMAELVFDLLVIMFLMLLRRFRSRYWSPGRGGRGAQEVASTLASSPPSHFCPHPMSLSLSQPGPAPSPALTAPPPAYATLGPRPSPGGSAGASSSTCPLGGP
T1 sequence (P51168 1-640): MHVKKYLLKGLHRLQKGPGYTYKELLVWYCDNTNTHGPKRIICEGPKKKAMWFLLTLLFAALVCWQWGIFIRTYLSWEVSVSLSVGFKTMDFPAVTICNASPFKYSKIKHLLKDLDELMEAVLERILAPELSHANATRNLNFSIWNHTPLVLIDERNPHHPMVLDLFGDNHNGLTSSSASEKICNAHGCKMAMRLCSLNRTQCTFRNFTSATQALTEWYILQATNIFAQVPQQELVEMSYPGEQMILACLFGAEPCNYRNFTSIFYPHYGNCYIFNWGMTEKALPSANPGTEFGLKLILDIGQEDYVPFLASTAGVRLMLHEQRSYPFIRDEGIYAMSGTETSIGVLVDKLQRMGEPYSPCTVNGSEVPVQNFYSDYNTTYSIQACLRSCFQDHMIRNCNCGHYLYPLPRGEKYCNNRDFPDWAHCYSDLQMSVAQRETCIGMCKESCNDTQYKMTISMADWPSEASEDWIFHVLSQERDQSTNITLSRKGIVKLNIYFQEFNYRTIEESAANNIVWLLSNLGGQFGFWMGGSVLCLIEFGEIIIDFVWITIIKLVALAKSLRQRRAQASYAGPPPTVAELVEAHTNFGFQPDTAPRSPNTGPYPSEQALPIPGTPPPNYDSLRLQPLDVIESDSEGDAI
T1 sequence (P51170 1-649): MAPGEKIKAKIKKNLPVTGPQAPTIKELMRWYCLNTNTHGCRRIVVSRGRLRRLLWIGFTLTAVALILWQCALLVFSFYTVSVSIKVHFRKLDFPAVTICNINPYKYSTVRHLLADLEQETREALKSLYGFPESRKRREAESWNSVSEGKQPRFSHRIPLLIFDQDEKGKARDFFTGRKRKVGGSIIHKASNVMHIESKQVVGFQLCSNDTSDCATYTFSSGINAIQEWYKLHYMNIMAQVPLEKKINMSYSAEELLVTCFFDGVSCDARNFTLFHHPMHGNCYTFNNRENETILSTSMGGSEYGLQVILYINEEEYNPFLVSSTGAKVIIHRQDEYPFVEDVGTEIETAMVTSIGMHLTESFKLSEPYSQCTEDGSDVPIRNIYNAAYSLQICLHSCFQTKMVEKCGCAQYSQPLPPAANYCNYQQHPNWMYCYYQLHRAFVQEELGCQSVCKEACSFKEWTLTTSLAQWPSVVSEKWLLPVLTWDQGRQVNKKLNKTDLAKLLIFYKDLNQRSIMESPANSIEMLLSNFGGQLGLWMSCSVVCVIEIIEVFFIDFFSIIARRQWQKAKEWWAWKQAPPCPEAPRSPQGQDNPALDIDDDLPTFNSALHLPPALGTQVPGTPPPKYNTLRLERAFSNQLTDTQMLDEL

[5] = system: non-CFTR Cl- channels; settings: cited from earlier work
[6] = Table 8, living greater than 60 days

Nc1ncnc2c1ncn2[C@@H]1O[C@H](COP(=O)(O)OP(=O)(O)OP(=O)(O)O)[C@@H](O)[C@H]1O [ATP, adenosine triphosphate]
intracellular Ca2+ stores in intestines [1]: restored intracellular Ca2+ in cells of the crypt | UTP receptors in intestines [2]: restored the UTP receptors | survival of cftr deficient mice ([3]; 20 ul of 20 mM ATP into amniotic fluid at 15-16 days gestation): improved the survival | +/− Survivors, number [3, 6]: 9 | −/− Survivors, number [3, 6]: 3 | +/+ Survivors, number ([3]; Table 8, living greater than 60 days, treated at 15-16 days gestation): 4 | +/+ Survivors (%) ([3]; Table 8, share of survivors): 25% | +/− Survivors (%) ([3]; Table 8, share of survivors): 56% | −/− Survivors (%) ([3]; Table 8, share of survivors): 19% | toxicity inferred from genotype distribution of survivors ([3]; regardless of genotype): non-toxic

N=C(N)NC(=O)c1nc(Cl)c(N)nc1N [Amiloride]
ENaC conduction [4]: block conduction

O=c1ccn([C@@H]2O[C@H](COP(=O)(O)OP(=O)(O)OP(=O)(O)O)[C@@H](O)[C@H]2O)c(=O)[nH]1 [UTP, uridine triphosphate]
Cl- (and liquid) secretion ([5]; aerosolized, CF airway epithelia): induces Cl- (and liquid) secretion | mucociliary clearance ([5]; aerosolized, pilot studies in normal subjects): effective stimulator of mucociliary clearance | tolerability ([5]; short-term aerosolized, normal subjects and patients with CF): well tolerated

Nc1nc(N)c2nc(-c3ccccc3)c(N)nc2n1 [triamterene]
ENaC conduction [4]: block conduction
